From ChEMBL document CHEMBL1201862, “PubChem BioAssay data set” (2004)
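Step 1: Grow cells in 96-well plates. Step 2: Expose to compound for 48 hours at 5 concentrations. Step 3: Interpolate endpoints linearly; if unreached, use highest concentration. GI50: concentration for 50% inhibition of growth.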 Activity calls are given as the source filed them. Rule as the data show it: active = GI50 up to about 1.1 µM and inactive = higher.

How the values were obtained:
Assay in all cases: NCI anticancer screen, dose series, 48 h
[1] = tested on: SK-MEL-2
[2] = tested on: SK-OV-3
[3] = tested on: NCI/ADR-RES
[4] = tested on: KM12
[5] = tested on: UACC-62
[6] = tested on: OVCAR-5
[7] = tested on: MDA-MB-435
[8] = tested on: NCI-H460
[9] = tested on: IGROV-1
[10] = tested on: CAKI-1
[11] = tested on: A549
[12] = tested on: HT-29
[13] = tested on: MDA-N
[14] = tested on: HOP-62
[15] = tested on: MCF7
[16] = tested on: CCRF-CEM
[17] = tested on: NCI-H226
[18] = tested on: SNB-19
[19] = tested on: DU-145
[20] = tested on: BT-549

Measured: GI50

COc1cc2c(cc1OC)C(=O)N(NC1=NCCN1)C2=O
inactive: [1] > 100 µM | [2] > 100 µM | [3] > 100 µM | [4] > 100 µM | [5] > 100 µM | [6] > 100 µM | [7] > 100 µM | [8] > 100 µM | [9] > 100 µM | [10] > 100 µM | [11] > 100 µM | [12] > 100 µM | [13] > 100 µM | [14] > 100 µM | [15] > 100 µM | [16] > 100 µM | [17] > 100 µM | [18] > 100 µM | [19] > 100 µM | [20] > 100 µM

CCOC(=O)c1cn2c(n1)sc1cc(Cl)cc(Cl)c12
inactive: [1] > 100 µM | [2] > 100 µM | [3] > 100 µM | [4] > 100 µM | [5] > 100 µM | [6] > 100 µM | [7] > 100 µM | [8] > 100 µM | [9] > 100 µM | [10] > 100 µM | [11] > 100 µM | [12] > 100 µM | [13] > 100 µM | [14] > 100 µM | [15] > 100 µM | [16] > 100 µM | [17] > 100 µM | [18] > 100 µM | [19] > 100 µM | [20] > 100 µM

Cc1ccc(/C=N/Nc2ccccn2)s1
inactive: [1] > 100 µM | [2] > 100 µM | [3] > 40.6 µM | [4] > 100 µM | [5] > 100 µM | [6] > 100 µM | [7] > 100 µM | [8] > 100 µM | [9] > 100 µM | [10] > 100 µM | [11] > 100 µM | [12] > 67.8 µM | [13] > 54 µM | [14] > 100 µM | [15] 21.1 µM | [16] > 100 µM | [17] > 56.5 µM | [18] > 100 µM | [19] > 100 µM | [20] 81.3 µM

CSC1(SC)N2Cc3ccccc3N=C2C1(c1ccccc1)c1ccccc1
inactive: [1] 12.7 µM | [2] > 54.5 µM | [3] 16.4 µM | [4] 7.73 µM | [5] 12.6 µM | [6] > 40.1 µM | [7] 4.01 µM | [8] 7.48 µM | [9] 24.2 µM | [10] 11 µM | [11] 13.8 µM | [12] 11.6 µM | [13] 12.5 µM | [14] > 44.9 µM | [15] 8.17 µM | [16] 8.73 µM | [17] > 100 µM | [18] > 48.3 µM | [19] 19.5 µM | [20] > 50.6 µM

COc1nc(C(Cl)(Cl)Cl)c(Cl)c(OC)c1Cl [PENCLOMEDINE]
inactive: [1] 35.1 µM | [2] 16.2 µM | [3] 24.3 µM | [4] 33.7 µM | [5] 22.4 µM | [6] 42.9 µM | [7] 42.5 µM | [8] 21.9 µM | [9] 14.2 µM | [10] 40.3 µM | [11] 40.5 µM | [12] 14.6 µM | [13] 26.9 µM | [14] 12.1 µM | [15] 17.7 µM | [16] 32.5 µM | [17] 34.4 µM | [18] 27.3 µM | [19] 38.7 µM | [20] 38 µM
